Source: ChEMBL document CHEMBL4196026, “Novel Tacrine-Hydroxyphenylbenzimidazole hybrids as potential multitarget drug candidates for Alzheimer's disease” (Eur J Med Chem, 2018)
Active and inactive are the calls of the source. The calls are words filed in the database; no cut-off is given here.

Legend:
[1] = biological target: Acetylcholinesterase (Electrophorus electricus, UniProt O42275); experiment: Inhibition of electric eel AChE using acetylthiocholine iodide as substrate preincubated for 15 mins followed by addition of substrate measured after 5 mins
[2] = Copper chelating activity assessed as inhibition of Cu2+-induced amyloid beta (1 to 42) aggregation at 80 uM measured after 24 hrs by ThT fluorescence assay relative to control
[3] = tested on: SH-SY5Y; experiment: Cytotoxicity against human SH-SY5Y cells assessed as reduction in cell viability at 2.5 uM after 24 hrs MTT assay; format: cell-based
[4] = tested on: SH-SY5Y; experiment: Neuroprotection against amyloid beta (1 to 42)-induced toxicity in human SH-SY5Y cells assessed as increase in cell viability at 2.5 uM preincubated for 1 hr followed by amyloid beta (1 to 42) addition and measured after 24 hrs MTT assay; format: functional, cell-based
[5] = tested on: SH-SY5Y; experiment: Neuroprotection against Fe/LAscH(-)-induced toxicity in human SH-SY5Y cells assessed as increase in cell viability at 2.5 uM preincubated for 1 hr followed by Fe/LAscH(-) addition and measured after 24 hrs MTT assay; format: functional, cell-based
[6] = Metal chelating activity assessed as compound-Cu2+ complex formation at pH 7.4
[7] = tested on: SH-SY5Y; experiment: Cytotoxicity against human SH-SY5Y cells assessed as reduction in cell viability at 0.1 uM after 24 hrs MTT assay; format: cell-based
[8] = tested on: SH-SY5Y; experiment: Neuroprotection against amyloid beta (1 to 42)-induced toxicity in human SH-SY5Y cells assessed as increase in cell viability at 0.1 uM preincubated for 1 hr followed by amyloid beta (1 to 42) addition and measured after 24 hrs MTT assay; format: functional, cell-based
[9] = tested on: SH-SY5Y; experiment: Neuroprotection against Fe/LAscH(-)-induced toxicity in human SH-SY5Y cells assessed as increase in cell viability at 0.1 uM preincubated for 1 hr followed by Fe/LAscH(-) addition and measured after 24 hrs MTT assay; format: functional, cell-based
[10] = biological target: Amyloid-beta precursor protein (Homo sapiens) (UniProt P05067); experiment: Inhibition of self-induced amyloid beta (1 to 42) (unknown origin) aggregation at 50 uM measured after 24 hrs by uranyl acetate staining based TEM analysis
[11] = Copper chelating activity assessed as inhibition of Cu2+-induced amyloid beta (1 to 42) aggregation at 50 uM measured after 24 hrs by uranyl acetate staining based TEM analysis
[12] = tested on: SH-SY5Y; experiment: Cytotoxicity against human SH-SY5Y cells assessed as reduction in cell viability at 1 uM after 24 hrs MTT assay; format: cell-based
[13] = tested on: SH-SY5Y; experiment: Neuroprotection against amyloid beta (1 to 42)-induced toxicity in human SH-SY5Y cells assessed as increase in cell viability at 1 uM preincubated for 1 hr followed by amyloid beta (1 to 42) addition and measured after 24 hrs MTT assay; format: functional, cell-based
[14] = tested on: SH-SY5Y; experiment: Neuroprotection against Fe/LAscH(-)-induced toxicity in human SH-SY5Y cells assessed as increase in cell viability at 1 uM preincubated for 1 hr followed by Fe/LAscH(-) addition and measured after 24 hrs MTT assay; format: functional, cell-based
[15] = biological target: Amyloid-beta precursor protein (Homo sapiens) (UniProt P05067); experiment: Inhibition of self-induced amyloid beta (1 to 42) (unknown origin) aggregation at 40 uM measured after 24 hrs by ThT fluorescence assay relative to control
[16] = Copper chelating activity assessed as inhibition of Cu2+-induced amyloid beta (1 to 42) aggregation at 40 uM measured after 24 hrs by ThT fluorescence assay relative to control

Chain of Acetylcholinesterase (O42275 whole entry): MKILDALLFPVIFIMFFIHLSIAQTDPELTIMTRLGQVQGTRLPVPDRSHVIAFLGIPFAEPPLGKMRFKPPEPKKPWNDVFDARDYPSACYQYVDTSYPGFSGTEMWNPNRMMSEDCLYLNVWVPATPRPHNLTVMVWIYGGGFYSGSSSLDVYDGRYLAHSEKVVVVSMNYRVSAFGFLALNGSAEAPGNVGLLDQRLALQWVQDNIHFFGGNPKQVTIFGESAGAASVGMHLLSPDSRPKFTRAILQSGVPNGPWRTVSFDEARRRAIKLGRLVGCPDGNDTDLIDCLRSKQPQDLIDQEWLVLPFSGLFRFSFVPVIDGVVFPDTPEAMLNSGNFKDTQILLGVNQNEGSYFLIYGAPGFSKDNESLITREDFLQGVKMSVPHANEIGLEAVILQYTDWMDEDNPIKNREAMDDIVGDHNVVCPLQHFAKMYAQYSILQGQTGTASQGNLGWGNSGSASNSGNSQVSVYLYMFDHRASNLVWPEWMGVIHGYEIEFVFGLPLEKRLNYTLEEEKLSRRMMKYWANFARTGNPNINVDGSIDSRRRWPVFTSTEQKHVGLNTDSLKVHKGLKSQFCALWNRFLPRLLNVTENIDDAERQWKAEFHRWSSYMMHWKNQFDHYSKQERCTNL
Chain of Amyloid-beta precursor protein (Homo sapiens) (P05067 whole entry): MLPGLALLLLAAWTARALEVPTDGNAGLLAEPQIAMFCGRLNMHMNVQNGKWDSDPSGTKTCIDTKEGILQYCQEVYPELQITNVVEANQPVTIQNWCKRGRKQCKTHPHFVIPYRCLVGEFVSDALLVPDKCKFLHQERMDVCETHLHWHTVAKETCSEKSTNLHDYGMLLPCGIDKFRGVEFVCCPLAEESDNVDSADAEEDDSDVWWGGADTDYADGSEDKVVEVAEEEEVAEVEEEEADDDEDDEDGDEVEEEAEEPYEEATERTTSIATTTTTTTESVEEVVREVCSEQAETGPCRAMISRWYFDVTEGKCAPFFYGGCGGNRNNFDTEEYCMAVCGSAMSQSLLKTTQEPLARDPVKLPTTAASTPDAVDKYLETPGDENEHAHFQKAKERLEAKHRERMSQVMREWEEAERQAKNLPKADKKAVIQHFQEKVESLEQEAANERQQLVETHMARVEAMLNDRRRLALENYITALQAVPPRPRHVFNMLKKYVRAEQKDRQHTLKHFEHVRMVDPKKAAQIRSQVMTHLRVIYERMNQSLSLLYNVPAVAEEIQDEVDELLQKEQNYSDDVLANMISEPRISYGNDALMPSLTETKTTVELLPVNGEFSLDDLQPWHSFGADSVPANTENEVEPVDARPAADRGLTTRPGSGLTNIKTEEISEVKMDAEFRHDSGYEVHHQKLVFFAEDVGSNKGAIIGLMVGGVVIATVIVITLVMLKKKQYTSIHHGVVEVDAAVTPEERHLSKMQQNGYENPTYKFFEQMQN

Compound | IC50 ([1]; read-out: IC50) [nM] | inhibition [2] [%] | Activity [12] | Activity [13] | Activity [14] | also measured
O=C(NCCCCNc1c2c(nc3ccccc13)CCCC2)c1ccc2[nH]c(-c3ccccc3O)nc2c1 | 208 | 65.5 |  |  |  | 
O=C(NCC(O)CNc1c2c(nc3ccccc13)CCCC2)c1ccc2[nH]c(-c3ccccc3O)nc2c1 (centres undefined) | 16.8 | 59.5 |  |  |  | Activity [3]: Non-Toxic; Activity [4]: Active; Activity [5]: Active
O=C(NCCCNc1c2c(nc3cc(Cl)ccc13)CCCC2)c1ccc2[nH]c(-c3ccccc3O)nc2c1 | 23.7 | 55.8 |  |  |  | Kd [6]: 0.01 nM; Activity [7]: Non-Toxic; Activity [8]: Active; Activity [9]: Active
O=C(NCCCNc1c2c(nc3ccccc13)CCCC2)c1ccc2[nH]c(-c3ccccc3O)nc2c1 | 30.9 | 77.3 |  |  |  | inhibition [10]: Active; inhibition [11]: Active
O=C(NCCNc1c2c(nc3ccccc13)CCCC2)c1ccc2[nH]c(-c3ccccc3O)nc2c1 | 36.4 | 49.4 |  |  |  | 
O=C(NCC(O)CNc1c2c(nc3cc(Cl)ccc13)CCCC2)c1ccc2[nH]c(-c3ccccc3O)nc2c1 (centres undefined) | 18.1 |  | Non-Toxic | Active | Active | 
O=C(NCCNc1c2c(nc3cc(Cl)ccc13)CCCC2)c1ccc2[nH]c(-c3ccccc3O)nc2c1 | 6.3 |  | Non-Toxic | inactive | Active | inhibition [15]: 21.9%; inhibition [16]: 20.9%
Oc1ccccc1-c1nc2ccccc2[nH]1 |  |  |  |  |  | IC50 [1]: Not Active
O=C(NCCCCNc1c2c(nc3cc(Cl)ccc13)CCCC2)c1ccc2[nH]c(-c3ccccc3O)nc2c1 | 142 |  | Non-Toxic | Active | Active | 
